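Dose response: 5 concentrations. Exposure: 48 h. Format: 96-well plates. Endpoint: linear interpolation; highest concentration if not reached. Here, GI50 denotes the concentration required for 50% inhibition of growth.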 Active and inactive are the calls of the source. Cut-off read from the data, not from the text of the source: active = GI50 up to about 1.1 µM and inactive = higher.
What was measured:
Test in all cases: inhibition of tumour cell growth, NCI panel, 48 h
MCF7 = system: MCF7
UO-31 = system: UO-31
TK-10 = system: TK-10
HT-29 = system: HT-29
NCI-H226 = system: NCI-H226
UACC-257 = system: UACC-257
T47D = system: T47D
CAKI-1 = system: CAKI-1
OVCAR-5 = system: OVCAR-5
HCT-116 = system: HCT-116
HOP-62 = system: HOP-62
Hs-578T = system: Hs-578T
MDA-MB-231 = system: MDA-MB-231
CCRF-CEM = system: CCRF-CEM
SK-MEL-5 = system: SK-MEL-5
K562 = system: K562
OVCAR-4 = system: OVCAR-4
RPMI-8226 = system: RPMI-8226
LOX IMVI = system: LOX IMVI
RXF 393 = system: RXF 393

Measured: GI50

N#Cc1cnn2cc[nH]c12
inactive: MCF7 > 100 µM | UO-31 > 100 µM | TK-10 > 100 µM | HT-29 > 100 µM | NCI-H226 > 100 µM | UACC-257 > 100 µM | T47D > 100 µM | CAKI-1 > 100 µM | OVCAR-5 > 100 µM | HCT-116 > 100 µM | HOP-62 > 100 µM | Hs-578T > 100 µM | MDA-MB-231 > 100 µM | CCRF-CEM > 100 µM | SK-MEL-5 > 100 µM | K562 > 100 µM | OVCAR-4 > 100 µM

CCOC(=O)c1nc2ccc(C(F)(F)F)cc2nc1Nc1ccc(OC)c(OC)c1
inactive: MCF7 > 100 µM | UO-31 > 100 µM | TK-10 41.8 µM | HT-29 > 100 µM | NCI-H226 > 100 µM | RPMI-8226 > 100 µM | UACC-257 > 100 µM | T47D > 100 µM | CAKI-1 24.5 µM | LOX IMVI > 100 µM | OVCAR-5 > 100 µM | RXF 393 > 100 µM | HCT-116 94.4 µM | HOP-62 12 µM | Hs-578T > 100 µM | MDA-MB-231 48.9 µM | CCRF-CEM > 100 µM | SK-MEL-5 > 100 µM | K562 > 100 µM

CC(CS(=O)(=O)Cc1ccccc1)C(N)=O (stereo not given)
inactive: MCF7 > 100 µM | UO-31 > 100 µM | TK-10 > 100 µM | HT-29 > 100 µM | NCI-H226 > 100 µM | RPMI-8226 > 100 µM | UACC-257 > 100 µM | T47D > 100 µM | CAKI-1 > 100 µM | LOX IMVI > 100 µM | OVCAR-5 > 100 µM | HCT-116 > 100 µM | HOP-62 > 100 µM | Hs-578T > 100 µM | MDA-MB-231 > 100 µM | SK-MEL-5 > 100 µM | K562 > 100 µM | OVCAR-4 > 100 µM

O=C1c2cc3c(cc2CC12Cc1cc4c(cc1C2=O)CCCC4)CCCC3
inactive: MCF7 > 100 µM | UO-31 > 100 µM | TK-10 31.8 µM | HT-29 > 100 µM | NCI-H226 > 100 µM | RPMI-8226 > 100 µM | UACC-257 10.9 µM | T47D 18.5 µM | LOX IMVI > 100 µM | OVCAR-5 > 100 µM | RXF 393 16.4 µM | HCT-116 62.7 µM | HOP-62 24.2 µM | Hs-578T 28.3 µM | MDA-MB-231 22.1 µM | CCRF-CEM > 100 µM | SK-MEL-5 46.5 µM | K562 78.5 µM | OVCAR-4 18.1 µM

O=C(N/N=C/C=C/c1ccc([N+](=O)[O-])o1)c1ccc(C(=O)N/N=C/C=C/c2ccc([N+](=O)[O-])o2)cc1
inactive: MCF7 34.4 µM | UO-31 > 67.6 µM | TK-10 31.8 µM | HT-29 72.9 µM | NCI-H226 > 100 µM | RPMI-8226 7.62 µM | T47D > 40.1 µM | CAKI-1 38.6 µM | LOX IMVI 28.1 µM | OVCAR-5 > 100 µM | RXF 393 25.9 µM | HCT-116 12.7 µM | HOP-62 46.7 µM | Hs-578T > 100 µM | CCRF-CEM 1.93 µM | SK-MEL-5 22.4 µM | K562 33.1 µM | OVCAR-4 > 72.3 µM

COC(=O)c1ccccc1C1CN=NC12Cc1cc3c(cc1C2=O)CCC3 (stereo not given)
inactive: MCF7 49.8 µM | UO-31 50.5 µM | TK-10 > 100 µM | HT-29 87.5 µM | NCI-H226 80 µM | UACC-257 40.6 µM | T47D 56.6 µM | CAKI-1 > 100 µM | LOX IMVI 26.9 µM | OVCAR-5 > 100 µM | RXF 393 > 100 µM | HCT-116 36.3 µM | HOP-62 > 100 µM | Hs-578T > 100 µM | MDA-MB-231 40.1 µM | CCRF-CEM 29.2 µM | SK-MEL-5 21.6 µM | K562 30.3 µM | OVCAR-4 44.6 µM

NS(=O)(=O)c1nnc(NC(=O)/C=C/C(=O)O)s1
inactive: MCF7 > 100 µM | UO-31 > 100 µM | TK-10 > 100 µM | HT-29 > 100 µM | RPMI-8226 > 100 µM | UACC-257 > 100 µM | T47D > 100 µM | CAKI-1 > 100 µM | LOX IMVI > 100 µM | OVCAR-5 > 100 µM | RXF 393 > 100 µM | HCT-116 > 100 µM | HOP-62 > 100 µM | Hs-578T > 100 µM | MDA-MB-231 > 100 µM | SK-MEL-5 > 100 µM | K562 > 100 µM | OVCAR-4 > 100 µM

COC(C)(C)OCCN1CCN(CCN2C3=C(C=C(C(C)=O)C3)Sc3ccccc32)CC1
inactive: UO-31 25.1 µM | TK-10 19.2 µM | HT-29 18 µM | NCI-H226 22.9 µM | RPMI-8226 14.3 µM | UACC-257 20.3 µM | T47D 23.9 µM | CAKI-1 19.2 µM | LOX IMVI 20.7 µM | OVCAR-5 25.4 µM | RXF 393 17.9 µM | HCT-116 18 µM | HOP-62 19.4 µM | Hs-578T 15.8 µM | MDA-MB-231 22.3 µM | CCRF-CEM 15.2 µM | SK-MEL-5 17.5 µM | K562 15 µM | OVCAR-4 28.6 µM

CN(C)CCNC(=O)c1cccc(CO)c1[N+](=O)[O-]
inactive: MCF7 > 100 µM | UO-31 > 100 µM | TK-10 > 100 µM | HT-29 > 100 µM | NCI-H226 > 100 µM | UACC-257 > 100 µM | T47D > 100 µM | CAKI-1 > 100 µM | OVCAR-5 > 100 µM | HCT-116 > 100 µM | HOP-62 > 100 µM | Hs-578T > 100 µM | MDA-MB-231 > 100 µM | CCRF-CEM > 100 µM | SK-MEL-5 > 100 µM | K562 > 100 µM

COC(C)(C)[C@@H]1CCCN1C1=C(C)C(=O)OC1
inactive: MCF7 > 100 µM | UO-31 > 100 µM | RPMI-8226 > 100 µM | T47D > 100 µM | CAKI-1 > 100 µM | LOX IMVI > 100 µM | OVCAR-5 > 100 µM | RXF 393 > 100 µM | HCT-116 > 100 µM | HOP-62 > 100 µM | Hs-578T > 100 µM | MDA-MB-231 > 100 µM | CCRF-CEM > 100 µM | SK-MEL-5 > 100 µM | K562 > 100 µM

CN(/N=C/c1cccs1)c1ccc([N+](=O)[O-])cc1[N+](=O)[O-]
inactive: MCF7 > 100 µM | UO-31 > 100 µM | TK-10 > 100 µM | HT-29 > 100 µM | RPMI-8226 > 100 µM | UACC-257 > 100 µM | T47D > 100 µM | CAKI-1 > 100 µM | RXF 393 > 100 µM | HCT-116 > 100 µM | HOP-62 > 100 µM | Hs-578T > 100 µM | MDA-MB-231 > 100 µM | CCRF-CEM > 100 µM | SK-MEL-5 > 100 µM | K562 > 100 µM | OVCAR-4 > 100 µM

— ChEMBL document CHEMBL1201862, “PubChem BioAssay data set” (2004)
